Several values for one entry are separate records, joined by “and”; a condition that tells them apart may be missing. Equal values may be shown once.
Test system: Long Evans rats
Test: Behavioral satiety sequence (BSS)
Type: in vivo, Long Evans rat
Description: The Behavioural Satiety Sequence (BSS) is a technique used to evaluate physiological satiety. It is based on the expression of a sequence of behaviors including eating, grooming, locomotor activity, followed by resting, which are typically observed in rodents post-ingestion (Halford et al, 1998, Pharmacology Biochemistry and Behaviour. 61(2): 159-168). The BSS is a widely used model for determining the effects of novel pharmaceuticals on food intake and measures of satiety in rodents (Oliveira et al, 2011, Revista de Nutrição. 24(4) 619-628), and to discriminate the cause of reduced food intake following pharmacological manipulation. For example, treatments that may reduce food intake by non-specific mechanisms, such as immobility, malaise, and taste adulteration, will disrupt this sequence (Halford et al, 1998, Pharmacology Biochemistry and Behaviour. 61(2): 159-168).
Specifically, 12 male Long-Evans rats were food-deprived for 22 h with a 2 h feeding period each day. Rats were trained to consume daily food during the 2 h period over 25 days. The testing phase was initiated once the rats consistently consumed 16-18 g of food per day with ≤10% variance in amount of feed consumed. Feeding took place in designated individual boxes in a quiet room separate from the housing room. Continuous remote monitoring via video camera during feeding was used to assess the BSS. Food consumption was measured by weighing the total available food before and after the 2 h feeding window, correcting for spillage. Lorcaserin (1 mg/kg) was included as a reference control (Higgins et al, 2011, Neuropsychopharmacology. 37(5): 1177-1191). Subjects were tested using a repeated-measures, Latin square design with 2-3 days wash-out between treatment cycles.
On scheduled test days, animals were monitored remotely via video camera during the feeding access period. The occurrence of four mutually exclusive behaviors (eating/drinking, grooming, active, rest) were individually scored. Over the 2 h feeding period, behaviors were assessed every 30 seconds. Scores were compiled into 23 5 min timebins (timebin 24 was removed due to early removal of animals) and the frequency of each behavior within each timebin was calculated to determine a temporal frequency of each measure (Rodgers et al, 2010, Pharmacology Biochemistry and Behaviour. 97: 3-14). Percentage time was plotted for each behavioral sequence in each timebin to compare between treatment groups (Higgins et al, 2011, Neuropsychopharmacology. 37(5): 1177-1191).

[1] = 0.3 mg/kg, raw score per animal LT-1 to LT-12
[2] = 1 mg/kg, raw data per animal (LT-1 to LT-12)

With `Clc1ccc(C2(OCC3OCCO3)c3ccccc3C3=NCCN32)cc1` (stereo not drawn) [Compound I-19] the “BSS scoring A (active), Time Bin 16 (75-80 TOTAL)” value [1] was 0 (6×) and 2 (3×) and 3 (3×), the “BSS scoring A (active), Time Bin 17 (80-85 TOTAL)” value [1] was 0 (3×) and 2 and 1 (5×) and 3 and 5 (2×) and the “BSS scoring A (active), Time Bin 18 (85-90 TOTAL)” value [1] was 4 and 0 (5×) and 8 and 2 (2×) and 1 and 5 (2×). The “BSS scoring E (eating/drinking), Time Bin 13 (60-65 TOTAL)” value [1] was 10 (3×) and 7 (4×) and 8 (3×) and 9 and 6, the “BSS scoring E (eating/drinking), Time Bin 14 (65-70 TOTAL)” value [1] was 9 (5×) and 6 and 10 (2×) and 7 and 8 (2×) and 2 and the “BSS scoring E (eating/drinking), Time Bin 15 (70-75 TOTAL)” value [1] was 9 and 6 (4×) and 4 and 1 and 7 (3×) and 5 and 3. For the same compound, the “BSS scoring E (eating/drinking), Time Bin 16 (75-80 TOTAL)” value [1] was 10 (4×) and 6 (2×) and 9 and 8 and 7 (3×) and 5, the “BSS scoring E (eating/drinking), Time Bin 17 (80-85 TOTAL)” value [1] was 10 (3×) and 5 and 4 (4×) and 7 (2×) and 9 (2×) and the “BSS scoring E (eating/drinking), Time Bin 18 (85-90 TOTAL)” value [1] was 4 and 9 (3×) and 8 and 0 and 6 (2×) and 10 and 3 (2×) and 7. The “BSS scoring G (grooming), Time Bin 13 (60-65 TOTAL)” value [1] was 0 (8×) and 1 (4×), the “BSS scoring G (grooming), Time Bin 14 (65-70 TOTAL)” value [1] was 0 (9×) and 1 (3×) and the “BSS scoring G (grooming), Time Bin 15 (70-75 TOTAL)” value [1] was 0 (7×) and 1 (5×). For the same compound, the “BSS scoring G (grooming), Time Bin 16 (75-80 TOTAL)” value [1] was 0 (11×) and 1, the “BSS scoring G (grooming), Time Bin 17 (80-85 TOTAL)” value [1] was 0 (8×) and 2 (2×) and 1 (2×) and the “BSS scoring G (grooming), Time Bin 18 (85-90 TOTAL)” value [1] was 2 (2×) and 1 (8×) and 0 (2×). The “BSS scoring R (resting), Time Bin 13 (60-65 TOTAL)” value [1] was 0 (7×) and 2 (3×) and 1 (2×), the “BSS scoring R (resting), Time Bin 14 (65-70 TOTAL)” value [1] was 0 (7×) and 1 (4×) and 2 and the “BSS scoring R (resting), Time Bin 15 (70-75 TOTAL)” value [1] was 1 (3×) and 0 (6×) and 3 and 2 (2×). For the same compound, the “BSS scoring R (resting), Time Bin 16 (75-80 TOTAL)” value [1] was 0 (6×) and 2 (3×) and 1 (3×), the “BSS scoring R (resting), Time Bin 17 (80-85 TOTAL)” value [1] was 0 (7×) and 1 (2×) and 4 and 3 and 2 and the “BSS scoring R (resting), Time Bin 18 (85-90 TOTAL)” value [1] was 0 (6×) and 1 (5×) and 2. The “BSS scoring A (active), Time Bin 19 (90-95 TOTAL), AVG” value (1 mg/kg, AVG of LT-1 to LT-12) was 0.14, the “BSS scoring A (active), Time Bin 20 (95-100 TOTAL), AVG” value (1 mg/kg, AVG of LT-1 to LT-12) was 0.10 and the “BSS scoring A (active), Time Bin 21 (100-105 TOTAL), AVG” value (1 mg/kg, AVG of LT-1 to LT-12) was 0.14. The “BSS scoring A (active), Time Bin 22 (105-110 TOTAL), AVG” value (1 mg/kg, AVG of LT-1 to LT-12) was 0.15, the “BSS scoring A (active), Time Bin 23 (110-115 TOTAL), AVG” value (1 mg/kg, AVG of LT-1 to LT-12) was 0.18 and the “BSS scoring A (active), Time Bin 24 (115-120 TOTAL), AVG” value (1 mg/kg, AVG of LT-1 to LT-12) was 0.15. The “BSS scoring E (eating/drinking), Time Bin 19 (90-95 TOTAL), AVG” value (1 mg/kg, AVG of LT-1 to LT-12) was 0.58, the “BSS scoring E (eating/drinking), Time Bin 20 (95-100 TOTAL), AVG” value (1 mg/kg, AVG of LT-1 to LT-12) was 0.73 and the “BSS scoring E (eating/drinking), Time Bin 21 (100-105 TOTAL), AVG” value (1 mg/kg, AVG of LT-1 to LT-12) was 0.61. The “BSS scoring E (eating/drinking), Time Bin 22 (105-110 TOTAL), AVG” value (1 mg/kg, AVG of LT-1 to LT-12) was 0.63, the “BSS scoring E (eating/drinking), Time Bin 23 (110-115 TOTAL), AVG” value (1 mg/kg, AVG of LT-1 to LT-12) was 0.59 and the “BSS scoring E (eating/drinking), Time Bin 24 (115-120 TOTAL), AVG” value (1 mg/kg, AVG of LT-1 to LT-12) was 0.41. The “BSS scoring G (grooming), Time Bin 19 (90-95 TOTAL), AVG” value (1 mg/kg, AVG of LT-1 to LT-12) was 0.02, the “BSS scoring G (grooming), Time Bin 20 (95-100 TOTAL), AVG” value (1 mg/kg, AVG of LT-1 to LT-12) was 0.01 and the “BSS scoring G (grooming), Time Bin 21 (100-105 TOTAL), AVG” value (1 mg/kg, AVG of LT-1 to LT-12) was 0.01. For the same compound, the “BSS scoring G (grooming), Time Bin 22 (105-110 TOTAL), AVG” value (1 mg/kg, AVG of LT-1 to LT-12) was 0.08, the “BSS scoring G (grooming), Time Bin 23 (110-115 TOTAL), AVG” value (1 mg/kg, AVG of LT-1 to LT-12) was 0.06 and the “BSS scoring G (grooming), Time Bin 24 (115-120 TOTAL), AVG” value (1 mg/kg, AVG of LT-1 to LT-12) was 0.02. For the same compound, the “BSS scoring R (resting), Time Bin 19 (90-95 TOTAL), AVG” value (1 mg/kg, AVG of LT-1 to LT-12) was 0.26, the “BSS scoring R (resting), Time Bin 20 (95-100 TOTAL), AVG” value (1 mg/kg, AVG of LT-1 to LT-12) was 0.17 and the “BSS scoring R (resting), Time Bin 21 (100-105 TOTAL), AVG” value (1 mg/kg, AVG of LT-1 to LT-12) was 0.24. The “BSS scoring R (resting), Time Bin 22 (105-110 TOTAL), AVG” value (1 mg/kg, AVG of LT-1 to LT-12) was 0.14, the “BSS scoring R (resting), Time Bin 23 (110-115 TOTAL), AVG” value (1 mg/kg, AVG of LT-1 to LT-12) was 0.18 and the “BSS scoring R (resting), Time Bin 24 (115-120 TOTAL), AVG” value (1 mg/kg, AVG of LT-1 to LT-12) was 0.26. The “BSS scoring A (active), Time Bin 19 (90-95 TOTAL)” value [2] was 0 (6×) and 4 and 1 (3×) and 7 and 3, the “BSS scoring A (active), Time Bin 20 (95-100 TOTAL)” value [2] was 0 (8×) and 6 and 3 and 1 and 2 and the “BSS scoring A (active), Time Bin 21 (100-105 TOTAL)” value [2] was 0 (7×) and 5 (3×) and 1 (2×). The “BSS scoring A (active), Time Bin 22 (105-110 TOTAL)” value [2] was 1 (3×) and 3 (3×) and 0 (4×) and 4 and 2, the “BSS scoring A (active), Time Bin 23 (110-115 TOTAL)” value [2] was 8 and 0 (5×) and 4 (2×) and 2 and 1 (3×) and the “BSS scoring A (active), Time Bin 24 (115-120 TOTAL)” value [2] was 6 and 0 (6×) and 1 and 3 and 2 (2×) and 4. The “BSS scoring E (eating/drinking), Time Bin 19 (90-95 TOTAL)” value [2] was 10 (3×) and 8 (3×) and 5 and 9 and 0 (3×) and 2, the “BSS scoring E (eating/drinking), Time Bin 20 (95-100 TOTAL)” value [2] was 10 (5×) and 6 and 3 and 8 and 2 and 9 (2×) and 0 and the “BSS scoring E (eating/drinking), Time Bin 21 (100-105 TOTAL)” value [2] was 10 (5×) and 2 (2×) and 5 and 3 (2×) and 8 and 0. The “BSS scoring E (eating/drinking), Time Bin 22 (105-110 TOTAL)” value [2] was 9 and 6 (4×) and 10 and 5 and 7 (2×) and 8 and 3 (2×), the “BSS scoring E (eating/drinking), Time Bin 23 (110-115 TOTAL)” value [2] was 0 and 7 (4×) and 10 (2×) and 3 and 5 (2×) and 6 and 4 and the “BSS scoring E (eating/drinking), Time Bin 24 (115-120 TOTAL)” value [2] was 0 (3×) and 2 (2×) and 10 and 5 (3×) and 3 and 9 and 8. The “BSS scoring G (grooming), Time Bin 19 (90-95 TOTAL)” value [2] was 0 (10×) and 1 (2×), the “BSS scoring G (grooming), Time Bin 20 (95-100 TOTAL)” value [2] was 0 (11×) and 1 and the “BSS scoring G (grooming), Time Bin 21 (100-105 TOTAL)” value [2] was 0 (11×) and 1. The “BSS scoring G (grooming), Time Bin 22 (105-110 TOTAL)” value [2] was 0 (7×) and 1 (2×) and 2 (2×) and 3, the “BSS scoring G (grooming), Time Bin 23 (110-115 TOTAL)” value [2] was 1 (3×) and 0 (7×) and 2 (2×) and the “BSS scoring G (grooming), Time Bin 24 (115-120 TOTAL)” value [2] was 0 (10×) and 1 (2×). For the same compound, the “BSS scoring R (resting), Time Bin 19 (90-95 TOTAL)” value [2] was 0 (5×) and 2 (3×) and 1 and 9 and 8 and 7, the “BSS scoring R (resting), Time Bin 20 (95-100 TOTAL)” value [2] was 0 (6×) and 4 and 1 (2×) and 2 and 5 and 7 and the “BSS scoring R (resting), Time Bin 21 (100-105 TOTAL)” value [2] was 0 (5×) and 3 (3×) and 2 (2×) and 6 and 10. The “BSS scoring R (resting), Time Bin 22 (105-110 TOTAL)” value [2] was 0 (5×) and 1 (2×) and 4 (2×) and 2 (2×) and 3, the “BSS scoring R (resting), Time Bin 23 (110-115 TOTAL)” value [2] was 1 (3×) and 3 (4×) and 0 (3×) and 2 and 4 and the “BSS scoring R (resting), Time Bin 24 (115-120 TOTAL)” value [2] was 4 (2×) and 7 (2×) and 0 (4×) and 2 and 5 and 1 (2×). For the same compound, the “BSS scoring A (active), Time Bin 19 (90-95 TOTAL), AVG” value (3 mg/kg, AVG of LT-1 to LT-12) was 0.18, the “BSS scoring A (active), Time Bin 20 (95-100 TOTAL), AVG” value (3 mg/kg, AVG of LT-1 to LT-12) was 0.19 and the “BSS scoring A (active), Time Bin 21 (100-105 TOTAL), AVG” value (3 mg/kg, AVG of LT-1 to LT-12) was 0.22. The “BSS scoring A (active), Time Bin 22 (105-110 TOTAL), AVG” value (3 mg/kg, AVG of LT-1 to LT-12) was 0.20, the “BSS scoring A (active), Time Bin 23 (110-115 TOTAL), AVG” value (3 mg/kg, AVG of LT-1 to LT-12) was 0.19 and the “BSS scoring A (active), Time Bin 24 (115-120 TOTAL), AVG” value (3 mg/kg, AVG of LT-1 to LT-12) was 0.27.

From patent US20250108038A1 (priority 2023, published 2025)
